Source: publication PMC11476629, “Exploring a Potential Optimization Route for Peptide Ligands of the Sam Domain from the Lipid Phosphatase Ship2” (International Journal of Molecular Sciences, 2024)
Non-standard residues stand in square brackets, D forms with d. Residues, ends and D or L forms follow the SMILES beside them. βAla = NCCC(=O)O

Experiments:
PC-3 cells = details: 4 h, crystal violet
Procedure: (§1) Media and supplements were obtained from Thermo Fisher Scientific (Milan, Italy). PC-3 cells were cultured in the RPMI 1640 medium enriched with 10% fetal bovine serum (FBS) and 2 mM L-glutamine. NHDFs were cultured in the DMEM medium complemented with 2% FBS, 1 μg/mL hydrocortisone, 10 ng/mL human epidermal growth factor, 3 ng/mL basic fibroblast growth factor, and 10 μg/mL heparin. For the cytotoxicity assay 96-well flat-bottom microplates were used and 4 × 10^3 cancer cells and 5 × 10^3 NHDF cells were seeded in 50 μL of medium per well and incubated overnight to permit cell adhesion at 37 °C in a 5% CO2 humidified atmosphere. Following the removal of the culture medium, cells were incubated with 100 μL of their growth medium containing 50 and 100 μM TAT-PSscan255 for 4 h. TAT-PSscan255 was dissolved in water. The crystal violet assay was performed to assess cell viability. The amount of dye taken up was quantified with a plate reader (Multiskan Fc 10094, Thermo Fisher Scientific, Milan, Italy) at 595 nm. Data, reported as means ± SEM of three independent experiments carried out in quadruplicate, were presented as the percentage of proliferating cells compared to the control (vehicle-treated cells).

[1] = system: normal human dermal fibroblasts (NHDFs); details: NHDF, 50 and 100 µM, 4 h, crystal violet; three experiments in quadruplicate
Procedure: as §1

[2] = system: EphA2 levels in PC-3 cells; assay: Western blot analysis of EphA2 levels; type: cell-based; details: n = 3
Procedure: The levels of EphA2 were monitored in PC-3 cells through Western blot analysis to evaluate if the binding of the TAT-PSscan255 peptide to Ship2-Sam could avoid the inhibition of EphA2 endocytosis and degradation. For this purpose, PC-3 cells were treated with ephrinA1-Fc (1 µg/mL for 2 h) and TAT-PSscan255 (50 µM for 4 h), both alone and in combination (i.e., pre-treating with TAT-peptide 50 µM for 2 h followed by the addition of ephrinA1-Fc 1 µg/mL for an extra 2 h) (Figure 7b).
PC-3 cells were treated with TAT-PSscan255 (50 μM) for 4 h and ephrinA1-Fc (1 μg/mL) for 2 h, both alone and in combination. […] Lysates were centrifuged at 13,000 rpm for 30 min at 4 °C and the protein concentration in the supernatants was evaluated using the Bradford assay. […] Quantification was achieved through densitometric analysis with the ImageJ software (v.1.54g) (National Institutes of Health, Bethesda, MD, USA, https://imagej.org). Statistical significance regarding the comparison between treated and untreated cells was evaluated with one-way ANOVA using Dunnett’s post-test analysis. Statistical analysis was assessed with the OriginPro software v.2023 (OriginLab Corporation, Northampton, MA, USA).

Compound: CC[C@H](C)[C@H](NC(=O)[C@H](CCCNC(=N)N)NC(=O)[C@H](CCCCN)NC(=O)[C@H](CC(N)=O)NC(=O)[C@H](C)NC(=O)[C@H](CC(C)C)NC(=O)[C@H](Cc1ccccc1)NC(=O)[C@H](CCCCN)NC(=O)[C@H](Cc1ccc(O)cc1)NC(=O)[C@H](Cc1c[nH]c2ccccc12)NC(=O)[C@H](CCC(=O)O)NC(=O)[C@H](CCCNC(=N)N)NC(=O)[C@H](CCCCN)NC(=O)CNC(=O)CNC(=O)[C@H](CCC(N)=O)NC(=O)[C@@H]1CCCN1C(=O)[C@@H]1CCCN1C(=O)[C@H](CCCNC(=N)N)NC(=O)[C@H](CCCNC(=N)N)NC(=O)[C@H](CCCNC(=N)N)NC(=O)[C@H](CCC(N)=O)NC(=O)[C@H](CCCNC(=N)N)NC(=O)[C@H](CCCNC(=N)N)NC(=O)[C@H](CCCCN)NC(=O)[C@H](CCCCN)NC(=O)[C@H](CCCNC(=N)N)NC(=O)CNC(=O)CCNC(C)=O)C(=O)N[C@@H](C)C(=O)N[C@@H](Cc1ccc(O)cc1)C(N)=O [TAT-PSscan255] (Ac-[βAla]GRKKRRQRRRPPQGGKREWYKFLANKRIAY-NH2)
- Cytotoxicity towards PC-3 compared with NHDFs (PC-3 cells; 50 and 100 µM): increased cytotoxicity towards PC-3 with respect to NHDFs
- Cytotoxic effect (cell viability relative to untreated cells) (PC-3 cells; PC-3, 50 and 100 µM, three experiments in quadruplicate): increased cytotoxic effect as a function of concentration
- Cytotoxic effect (cell viability relative to untreated cells) [1]: increased cytotoxic effect as a function of concentration
- EphA2 levels with respect to untreated control ([2]; PC-3, TAT-PSscan255 alone, 50 µM for 4 h): a certain decrease in EphA2 levels
- EphA2 levels with respect to untreated control ([2]; PC-3, TAT-peptide 50 µM for 2 h, then ephrinA1-Fc 1 µg/mL added for an extra 2 h): a reduction in EphA2 levels like that observed for the ephrin ligand when used by itself
